Reference: patent US20110003892A1, “ALL-TRANS RETINOID ESTERS AS ACTIVE PHARMACEUTICAL INGREDIENTS, ORAL AND TOPICAL DOSAGE FORM COMPOSITIONS THEREOF, AND METHODS OF TREATING SKIN CONDITIONS THEREOF” (priority 2008, published 2011)

Assays:
RARs = details: Repa J J et al., 1993; cited from earlier work
Rhino mice = experiment: Comedolytic effect in orally dosed Rhino mice (comedone area by histology); format: in vivo; details: oral treatment; for dose producing maximal reduction in comedone size as compared to the vehicle control: 24 days (FIG. 1); for reduction in comedone area: each retinoid alone, 24 days, various doses (FIG. 1)
Description: (§1) Animals and dose administration. Rhino mice 6-8 weeks old were orally dosed. The mice were dosed daily. The mice were weighed three times per week, and doses were adjusted weekly based on body weight. The oral formulation was made by mixing each API with Wesson® soybean oil. The oral dose was delivered to the back of the mouth of each mouse. Mice were sacrificed 4 hours after the final oral dose. At sacrifice, the dorsal skin was collected for histological studies.
Comedolytic effect. The extent of the comedolytic effect (i.e., efficacy) was assessed by measuring the average area of the comedones, whereby the smaller the area, the larger the effect and efficacy. The comedone area was determined by histological analysis of tissue sections. Skin was fixed overnight in 4% paraformaldehyde at 4° C. with gentle agitation, and the skin was dehydrated the next day in 100% methanol. Samples were embedded in paraffin and a qty. nine 10μ sections each spaced 150μ apart were prepared from each Rhino mouse. Five of the nine sections were digitally imaged (6× magnification) for comedone analysis using Metamorph Imaging Software (trace function).
The perimeter of each imaged comedone taken from the 5 sections was traced using a Wacom Intuos 3 Graphics Tablet interfaced with the software. The number of pixels representing each individual comedone area was obtained. The mean number of pixels per comedone was obtained for each Rhino mouse. For comedones that were completely healed (i.e., area=0), a pixel value approaching 0 (<10) was assessed. The individual comedone average for each mouse was used to calculate the treatment group mean. Results in the figures herein have been expressed in terms of mean±standard error of the mean.
Preparation of oral retinoid dosing formulations. A concentrated stock solution containing each retinoid was prepared in dichloromethane. The retinoid concentrated stock solution was diluted into ethanol. The concentration of retinoid in that diluted stock solution was determined spectrophotometrically, whereby the molar extinction coefficient=44,340 and λmax=350. The purity of the SB-RA, IPE-RA, IB-RA, and t-butyl RA was determined to be greater than 98% by HPLC. A predetermined volume of retinoid-containing solution was added to Wesson® oil, the sample was mixed, and the residual dichloromethane was removed by flushing the oil with argon for 2-3 hours under a vapor hood. The final dose was delivered orally using ≦50 μL of oil.

[1] = Body weight change from baseline in orally dosed Rhino mice; format: in vivo; details: oral treatment, 24 days, any dose of retinoid studied (FIG. 2)
Description: as §1

## CC1=C(/C=C/C(C)=C/C=C/C(C)=C\C(=O)O)C(C)(C)CCC1 [13-cis retinoic acid]
RARs
  binding to the RARs: does not bind

## CC1=C(/C=C/C(C)=C/C=C/C(C)=C/C(=O)OCC(C)C)C(C)(C)CCC1 [IB-RA, All-trans-retinoic acid iso-butyl ester]
Rhino mice
  dose producing maximal reduction in comedone size as compared to the vehicle control: 26.2 μmole/kgBW
  reduction in comedone area: significant dose-dependent reduction
[1]
  % change from the starting baseline weight (overall group weight): no significant reduction

## CC1=C(/C=C/C(C)=C/C=C/C(C)=C/C(=O)OC(C)C)C(C)(C)CCC1 [IPE-RA, all-trans-retinoic acid iso-propyl ester]
Rhino mice
  dose producing maximal reduction in comedone size as compared to the vehicle control: 26.2 μmole/kgBW
  reduction in comedone area: significant dose-dependent reduction
[1]
  % change from the starting baseline weight (overall group weight): no significant reduction

## CCC(C)OC(=O)/C=C(C)/C=C/C=C(C)/C=C/C1=C(C)CCCC1(C)C (stereo not drawn) [SB-RA, all-trans-retinoic acid sec-butyl ester]
Rhino mice
  dose producing maximal reduction in comedone size as compared to the vehicle control: 26.2 μmole/kgBW
  reduction in comedone area: significant dose-dependent reduction
[1]
  % change from the starting baseline weight (overall group weight): no significant reduction

## CC1=C(/C=C/C(C)=C/C=C/C(C)=C/C(=O)OC(C)(C)C)C(C)(C)CCC1 [t-butyl-RA, all-trans-retinoic acid tert-butyl ester]
Rhino mice
  dose producing maximal reduction in comedone size as compared to the vehicle control: 166 μmole/kgBW
  reduction in comedone area: significant dose-dependent reduction
[1]
  % change from the starting baseline weight (overall group weight): no significant reduction
